Source: US20210300926A1, “NEW BETA-LACTAMASE INHIBITORS TARGETING GRAM NEGATIVE BACTERIA” (priority 2017, published 2021)

How the values were obtained:
Format in all cases: biochemical
OXA-48 = molecular target: T1, OXA-48 (Klebsiella pneumoniae, UniProt Q6XEC0); assay: Kinetic parameters of β-lactamase carbamoylation/de-carbamoylation (nitrocefin), OXA-48; conditions: for Carbamoylation efficacy of β-lactamases by diazabicyclooctanes / De-carbamoylation rate constant k−2 for β-lactamase-diazabicyclooctane adducts: OXA-48, 20° C., nitrocefin 100 μM, MES pH 6.4, NA = no inhibition at 100 μM
T1 construct: fragments of the β-lactamase genes encoding soluble enzymes, i.e. devoid of the signal peptides; 6xHis tag followed by TEV cleavage site ([…]) (N); made in house; host or cells: E. coli BL21 (DE3)
Excerpt: (§1) Plasmid and strain construction. For antibiotic susceptibility testing, the R-lactamase genes were cloned into the vector pTRC-99k, which is a derivative of pTRC99a (Pharmacia) obtained by replacing the β-lactamase resistance gene by a kanamycin resistance gene (Km, lacl, pTRC promoter, oriVcolEl; D. Mengin-Lecreulx, unpublished). Recombinant plasmids were introduced by electrotransformation into Escherichia coli Top10. For β-lactamase production, fragments of the β-lactamase genes encoding soluble enzymes, i.e. devoid of the signal peptides, were cloned into the vector pET-TEV generating translational fusions with a vector-encoded N-terminal 6×His Tag followed by a TEV cleavage site ([…]) (1).
(§2) Production and purification of β-lactamases. E. coli BL21 (DE3) harboring recombinant plasmids were grown in brain heart infusion (BHI) broth supplemented with kanamycin (50 μg/ml) at 37° C. under vigorous shaking until the optical density at 600 nm (OD600) reached 0.8. Isopropyl β-D-1-thiogalactopyranoside IPTG (0.5 mM) was added and incubation was continued at 16° C. for 18 h. Bacteria were harvested by centrifugation, re-suspended in 25 mM Tris-HCl (pH 7.5) containing 300 mM NaCl (buffer A) and lysed by sonication. The enzymes were purified from clarified lysates by affinity chromatography (NiNTA agarose, Sigma-Aldrich) and size exclusion chromatography in buffer A (Superdex 200 HL26/60, Amersham Pharmacia Biotech). Protein concentration was determined by the Biorad protein assay using bovine serum albumin as a standard.
(§3) Determination of kinetic parameters. […] Briefly, the initial velocity (vi) was determined by spectrophotometry for various concentrations of β-lactams [S] and a fixed concentration of β-lactamase [E]. The values of vi were plotted as a function of [S]. The kinetic constants Km and kcat were determined by fitting the equation […] to the resulting curve. The molecular extinction coefficient was 14,600 M^−1 cm^−1 at 486 nm for nitrocefin. […] Kinetics constants were deduced from a minimum of 6 progress curves obtained in a minimum of two independent experiments.

AmpCEclo = molecular target: T2, AmpCEclo (Enterobacter cloacae, UniProt P05364); conditions: for Carbamoylation efficacy of β-lactamases by diazabicyclooctanes / De-carbamoylation rate constant k−2 for β-lactamase-diazabicyclooctane adducts: AmpCEclo, 20° C., nitrocefin 100 μM, MES pH 6.4
T2 construct: fragments of the β-lactamase genes encoding soluble enzymes, i.e. devoid of the signal peptides; 6xHis tag followed by TEV cleavage site ([…]) (N); made in house; host or cells: E. coli BL21 (DE3)
Procedure: as §2, §3

TEM-1 = molecular target: T3, TEM-1 (Escherichia coli, UniProt P62593); assay: Kinetic parameters of β-lactamase carbamoylation/de-carbamoylation (nitrocefin), TEM-1; conditions: 20° C., nitrocefin 100 μM, MES pH 6.4
T3 construct: fragments of the β-lactamase genes encoding soluble enzymes, i.e. devoid of the signal peptides; made in house; host or cells: E. coli BL21 (DE3)
Excerpt: as §1, §2, §3

CTX-M-15 = molecular target: T4, CTX-M-15 (Escherichia coli, UniProt Q9EXV5); assay: Kinetic parameters of β-lactamase carbamoylation/de-carbamoylation (nitrocefin), CTX-M-15; conditions: for Carbamoylation efficacy of β-lactamases by diazabicyclooctanes / De-carbamoylation rate constant k−2 for β-lactamase-diazabicyclooctane adducts: CTX-M-15, 20° C., nitrocefin 100 μM, MES pH 6.4; for activity against CTX-M-15 (in words): summary of Tables 1 and 2
T4 construct: fragments of the β-lactamase genes encoding soluble enzymes, i.e. devoid of the signal peptides; made in house; host or cells: E. coli BL21 (DE3)
Excerpt: as §1, §2, §3

KPC-2 = molecular target: T5, KPC-2 (Klebsiella pneumoniae, UniProt Q9F663); assay: Kinetic parameters of β-lactamase carbamoylation/de-carbamoylation (nitrocefin), KPC-2; conditions: for Carbamoylation efficacy of β-lactamases by diazabicyclooctanes / De-carbamoylation rate constant k−2 for β-lactamase-diazabicyclooctane adducts: KPC-2, 20° C., nitrocefin 100 μM, MES pH 6.4; for activity against KPC-2 (in words): summary of Tables 1 and 2
T5 construct: fragments of the β-lactamase genes encoding soluble enzymes, i.e. devoid of the signal peptides; 6xHis tag followed by TEV cleavage site ([…]) (N); made in house; host or cells: E. coli BL21 (DE3)
Excerpt: as §1, §2, §3

T2 sequence (P05364 21-381): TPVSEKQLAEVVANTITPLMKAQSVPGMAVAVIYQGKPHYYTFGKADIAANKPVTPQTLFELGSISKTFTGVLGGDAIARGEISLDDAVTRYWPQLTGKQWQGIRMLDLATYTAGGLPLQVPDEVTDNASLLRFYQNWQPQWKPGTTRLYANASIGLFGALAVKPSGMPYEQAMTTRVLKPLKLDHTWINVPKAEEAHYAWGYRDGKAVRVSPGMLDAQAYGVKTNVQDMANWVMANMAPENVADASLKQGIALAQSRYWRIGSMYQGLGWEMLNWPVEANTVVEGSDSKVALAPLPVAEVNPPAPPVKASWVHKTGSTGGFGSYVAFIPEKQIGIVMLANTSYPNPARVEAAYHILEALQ
T3 sequence (P62593 24-286 limits assumed): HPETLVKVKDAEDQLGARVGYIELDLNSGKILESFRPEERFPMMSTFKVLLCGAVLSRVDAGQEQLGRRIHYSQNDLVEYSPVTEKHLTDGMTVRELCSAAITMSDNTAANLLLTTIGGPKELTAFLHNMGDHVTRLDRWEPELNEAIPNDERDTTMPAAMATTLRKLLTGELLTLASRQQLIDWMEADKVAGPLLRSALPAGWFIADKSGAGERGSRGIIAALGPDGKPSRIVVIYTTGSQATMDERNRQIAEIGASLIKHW
T5 sequence (Q9F663 25-293 limits assumed): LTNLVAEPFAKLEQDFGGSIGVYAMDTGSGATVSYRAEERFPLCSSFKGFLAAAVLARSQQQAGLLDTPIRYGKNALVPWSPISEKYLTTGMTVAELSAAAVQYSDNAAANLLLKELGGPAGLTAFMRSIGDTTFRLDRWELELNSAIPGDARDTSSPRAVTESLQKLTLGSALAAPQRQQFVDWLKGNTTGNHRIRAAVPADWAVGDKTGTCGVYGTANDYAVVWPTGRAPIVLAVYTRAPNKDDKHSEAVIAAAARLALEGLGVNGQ
T1 sequence (Q6XEC0 23-265 limits assumed): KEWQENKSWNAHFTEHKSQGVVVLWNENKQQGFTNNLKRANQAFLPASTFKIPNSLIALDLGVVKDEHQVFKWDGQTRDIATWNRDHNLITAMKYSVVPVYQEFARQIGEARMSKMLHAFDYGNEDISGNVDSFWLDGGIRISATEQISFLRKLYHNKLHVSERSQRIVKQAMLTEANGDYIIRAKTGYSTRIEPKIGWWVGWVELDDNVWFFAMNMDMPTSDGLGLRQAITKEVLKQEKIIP
T4 sequence (Q9EXV5 entry or part of it): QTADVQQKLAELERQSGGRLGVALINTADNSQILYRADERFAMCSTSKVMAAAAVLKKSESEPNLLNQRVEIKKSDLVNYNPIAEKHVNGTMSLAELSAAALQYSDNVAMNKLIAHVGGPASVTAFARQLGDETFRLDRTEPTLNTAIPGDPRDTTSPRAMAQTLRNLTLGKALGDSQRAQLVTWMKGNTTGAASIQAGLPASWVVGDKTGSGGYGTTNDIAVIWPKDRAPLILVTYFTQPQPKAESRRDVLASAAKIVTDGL

Compound | inhibition of β-lactamase OXA-48 (in words) (OXA-48) | Carbamoylation efficacy of β-lactamases by diazabicyclooctanes (OXA-48) | De-carbamoylation rate constant k−2 for β-lactamase-diazabicyclooctane adducts (OXA-48) | inhibition of β-lactamase AmpClo (in words) (AmpCEclo) | Carbamoylation efficacy of β-lactamases by diazabicyclooctanes (AmpCEclo) | De-carbamoylation rate constant k−2 for β-lactamase-diazabicyclooctane adducts (AmpCEclo) | Carbamoylation efficacy of β-lactamases by diazabicyclooctanes (TEM-1) | De-carbamoylation rate constant k−2 for β-lactamase-diazabicyclooctane adducts (TEM-1) | Carbamoylation efficacy of β-lactamases by diazabicyclooctanes (CTX-M-15) | De-carbamoylation rate constant k−2 for β-lactamase-diazabicyclooctane adducts (CTX-M-15) | Carbamoylation efficacy of β-lactamases by diazabicyclooctanes (KPC-2) | De-carbamoylation rate constant k−2 for β-lactamase-diazabicyclooctane adducts (KPC-2) | activity against CTX-M-15 (in words) (CTX-M-15) | activity against KPC-2 (in words) (KPC-2)
NC(=O)[C@@H]1CC[C@@H]2CN1C(=O)N2OS(=O)(=O)O [Avibactam, reference compound] | poorly inhibited | (9.8 ± 0.6) × 10^2 M^−1 s^−1 | (2.7 ± 0.1 ) × 10^−3 s−1 | poorly inhibited | (1.8 ± 0.1) × 10^4 M^−1 s^−1 | (1.8 ± 0.2) × 10^−3 s−1 | (8.8 ± 0.2) × 10^4 M^−1 s^−1 | (1.3 ± 0.1) × 10^−3 s−1 | (1.3 ± 0.1) × 10^5 M^−1 s^−1 | (1.1 ± 0.3) × 10^−3 s−1 | (2.6 ± 0.1) × 10^4 M^−1 s^−1 | (4.0 ± 0.3) × 10^−3 s−1 | – | –
O=C1N2C[C@@H](CC[C@H]2Cn2cc(CN3CCOCC3)nn2)N1OS(=O)(=O)[O-].[Na+] [Compound 1a.i11] | – | – | – | – | (3.1 ± 0.3) × 10^1 M^−1 s^−1 | (8.9 ± 2.1) × 10^−4 s−1 | (1.2 ± 0.0) × 10^3 M^−1 s^−1 | (2.9 ± 0.3) × 10^−3 s−1 | (1.0 ± 0.0) × 10^2 M^−1 s^−1 | (4.6 ± 1.1) × 10^−4 s−1 | (1.9 ± 0.2) × 10^2 M^−1 s^−1 | (3.0 ± 0.4) × 10^−3 s−1 | displayed activity | displayed activity
O=C1N2C[C@@H](CC[C@H]2Cn2cc(-c3ccccc3)nn2)N1OS(=O)(=O)[O-].[Na+] [Compound 1a.i16] | – | (1.1 ± 0.3) × 10^2 M^−1 s^−1 | (1.7 ± 0.1) × 10^−3 s−1 | – | (2.0 ± 0.0) × 10^2 M^−1 s^−1 | (2.3 ± 0.1) × 10^−3 s−1 | (4.7 ± 0.1) × 10^3 M^−1 s^−1 | (4.2 ± 0.6) × 10^−4 s−1 | (6.9 ± 0.2) × 10^3 M^−1 s^−1 | (3.3 ± 0.5) × 10^−4 s−1 | (9.3 ± 0.4) × 10^2 M^−1 s^−1 | (8.8 ± 1.2) × 10^−4 s−1 | displayed activity | displayed activity
O=C1N2C[C@@H](CC[C@H]2Cn2cc(-c3cccnc3)nn2)N1OS(=O)(=O)O [Compound 1a.i] | – | – | – | – | (8.5 ± 0.7) × 10^1 M^−1 s^−1 | (2.1 ± 0.5) × 10^−3 s−1 | (1.4 ± 0.1) × 10^3 M^−1 s^−1 | (2.1 ± 0.2) × 10^−3 s−1 | (1.7 ± 0.4) × 10^3 M^−1 s^−1 | (6.4 ± 0.8) × 10^−4 s−1 | (5.5 ± 0.1) × 10^2 M^−1 s^−1 | (3.0 ± 0.1) × 10^−3 s−1 | displayed activity | displayed activity
